Reference: patent publication US11242337B2, “Compounds useful for treating gastrointestinal tract disorders” (Ardelyx, Inc., priority 2017, dated 2022)

Target: T1, NHE3 (Homo sapiens, UniProt P48764)
T1 construct: expressed in transfected cells
T1 sequence (P48764 26-834): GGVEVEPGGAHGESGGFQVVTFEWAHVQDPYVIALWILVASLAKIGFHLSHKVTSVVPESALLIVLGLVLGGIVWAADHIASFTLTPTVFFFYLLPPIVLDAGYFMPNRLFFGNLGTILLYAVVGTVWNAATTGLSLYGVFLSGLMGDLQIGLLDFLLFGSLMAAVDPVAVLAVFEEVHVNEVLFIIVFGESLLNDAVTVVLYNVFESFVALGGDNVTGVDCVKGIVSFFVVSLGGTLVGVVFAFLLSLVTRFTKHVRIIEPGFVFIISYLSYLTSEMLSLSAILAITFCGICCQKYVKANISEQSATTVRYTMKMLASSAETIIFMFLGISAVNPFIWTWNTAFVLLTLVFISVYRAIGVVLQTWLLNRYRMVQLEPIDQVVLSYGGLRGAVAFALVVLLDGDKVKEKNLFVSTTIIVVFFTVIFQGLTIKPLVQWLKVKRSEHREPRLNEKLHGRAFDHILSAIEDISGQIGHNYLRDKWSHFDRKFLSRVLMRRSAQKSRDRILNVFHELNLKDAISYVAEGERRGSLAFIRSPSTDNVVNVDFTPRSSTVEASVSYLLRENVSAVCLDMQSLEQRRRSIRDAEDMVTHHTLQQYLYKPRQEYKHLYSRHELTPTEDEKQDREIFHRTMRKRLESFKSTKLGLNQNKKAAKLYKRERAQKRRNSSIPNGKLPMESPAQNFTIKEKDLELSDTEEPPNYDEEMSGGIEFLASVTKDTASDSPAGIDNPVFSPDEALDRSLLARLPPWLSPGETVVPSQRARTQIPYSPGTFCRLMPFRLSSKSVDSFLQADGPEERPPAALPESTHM
T1 sequence (Q99653 2-195 partner limits assumed): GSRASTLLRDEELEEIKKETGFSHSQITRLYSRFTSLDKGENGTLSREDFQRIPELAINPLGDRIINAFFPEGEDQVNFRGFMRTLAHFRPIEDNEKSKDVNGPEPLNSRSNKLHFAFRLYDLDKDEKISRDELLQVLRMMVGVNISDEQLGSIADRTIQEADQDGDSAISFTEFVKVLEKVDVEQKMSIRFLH
Assay: persistent inhibition of NHE3 in the cell-based assay of example 181 (4-chloro vs 4-cyano pairs)
Conditions: for IC50: read-out: pIC50 (persistent) (converted); for Percent Inhibition: cell-based assay of example 181, persistent
Experimental: The following pairs of compounds differ only in the 4-position substituent (either chloro (X—Cl) or cyano (X—CN)):
The ability of compounds to inhibit human and rat NHE-3-mediated Na^+ dependent H^+ antiport after application and washout was measured using a modification of the pH sensitive dye method described above. PS120 fibroblasts stably expressing human NHE3 and NHERF2 were obtained from Mark Donowitz (Baltimore, Md.). Opossum kidney (OK) cells were obtained from the ATCC and propagated per their instructions. The rat NHE-3 gene was introduced into OK cells via electroporation, and cells were seeded into 96 well plates and grown overnight. Medium was aspirated from the wells, cells were washed once with NaCl-HEPES buffer (100 mM NaCl, 50 mM HEPES, 10 mM glucose, 5 mM KCl, 2 mM CaCl2, 1 mM MgCl2, pH 7.4), then overlayed with NaCl-HEPES buffer containing 0-30 μM test compound. After a 60 min incubation at room temperature, the test drug containing buffer was aspirated from the cells. Following aspiration, cells were washed once with NaCl-HEPES buffer without drug, then incubated for 30 min at 37° C. with NH4Cl-HEPES buffer (20 mM NH4Cl, 80 mM NaCl, 50 mM HEPES, 5 mM KCl, 2 mM CaCl2, 1 mM MgCl2, pH 7.4) containing 5 μM BCECF-AM. Cells were washed once with Ammonium free, Na^+-free HEPES (100 mM choline, 50 mM HEPES, 10 mM glucose, 5 mM KCl, 2 mM CaCl2, 1 mM MgCl2, pH 7.4) and incubated in the same buffer for 10 minutes at room temperature to lower intracellular pH. NHE-3-mediated recovery of neutral intracellular pH was initiated (10 min after compound washout) by addition of Na-HEPES buffer. […] Changes in intracellular pH were monitored using a FLIPR Tetra® (Molecular Devices, Sunnyvale, Calif.) by excitation at λex 439 to 505 nm, and measuring BCECF fluorescence at λem 538 nm. The initial rate of the fluorescence ratio change was used as a measure of NHE-mediated Na^+/H^+ activity, and reported as the change in fluorescence ratio per minute.

[1] = cell-based assay of example 181, after washout

| IC50 [1] | Percent Inhibition | pIC50 (persistent) [1] | Structure (SMILES) |
| --- | --- | --- | --- |
| 6.31 nM | 82% | – | O=C(NCCCCNC(=O)NCCOCCOCCNS(=O)(=O)c1ccc(O[C@H]2c3cc(Cl)cc(Cl)c3C[C@@H]2N2CCNCC2)cc1)NCCOCCOCCNS(=O)(=O)c1ccc(O[C@H]2c3cc(Cl)cc(Cl)c3C[C@@H]2N2CCNCC2)cc1 [G-Cl, 3-(2-{2-[2-(4-{[(1S,2S)-4,6-dichloro-2-(piperazin-1-yl)-2,3-dihydro-1H-inden-1-yl]oxy}benzenesulfonamido)ethoxy]ethoxy}ethyl)-1-(4-{[(2-{2-[2-(4-{[(1S,2S)-4,6-dichloro-2-(piperazin-1-yl)-2,3-dihydro-1H-inden-1-yl]oxy}benzenesulfonamido)ethoxy]ethoxy}ethyl)carbamoyl]amino}butyl)urea] |
| 0.631 nM | 101% | – | C[C@@H]1CN([C@H]2Cc3c(C#N)cc(Cl)cc3[C@@H]2Oc2ccc(S(=O)(=O)N[C@@H]3CCN(CCOCCNC(=O)NCCCCNC(=O)NCCOCCN4CC[C@@H](NS(=O)(=O)c5ccc(O[C@H]6c7cc(Cl)cc(C#N)c7C[C@@H]6N6CCN[C@H](C)C6)cc5)C4)C3)cc2)CCN1 [A-CN, 3-(2-{2-[(3R)-3-(4-{[(1S,2S)-6-chloro-4-cyano-2-[(3R)-3-methylpiperazin-1-yl]-2,3-dihydro-1H-inden-1-yl]oxy}benzenesulfonamido)pyrrolidin-1-yl]ethoxy}ethyl)-1-(4-{[(2-{2-[(3R)-3-(4-{[(1S,2S)-6-chloro-4-cyano-2-[(3R)-3-methylpiperazin-1-yl]-2,3-dihydro-1H-inden-1-yl]oxy}benzenesulfonamido)pyrrolidin-1-yl]ethoxy}ethyl)carbamoyl]amino}butyl)urea] |
| 0.631 nM | 102% | – | C[C@@H]1CN([C@H]2Cc3c(Cl)cc(Cl)cc3[C@@H]2Oc2ccc(S(=O)(=O)N[C@H]3CCN(C(=O)CNC(=O)CNC(=O)NCCCCNC(=O)NCC(=O)NCC(=O)N4CC[C@H](NS(=O)(=O)c5ccc(O[C@H]6c7cc(Cl)cc(Cl)c7C[C@@H]6N6CCN[C@H](C)C6)cc5)C4)C3)cc2)CCN1 [B-Cl, N-{2-[(3S)-3-(4-{[(1S,2S)-4,6-dichloro-2-[(3R)-3-methylpiperazin-1-yl]-2,3-dihydro-1H-inden-1-yl]oxy}benzenesulfonamido)pyrrolidin-1-yl]-2-oxoethyl}-2-({[4-({[({2-[(3S)-3-(4-{[(1S,2S)-4,6-dichloro-2-[(3R)-3-methylpiperazin-1-yl]-2,3-dihydro-1H-inden-1H-yl]oxy}benzenesulfonamido)pyrrolidin-1-yl]-2-oxoethyl}carbamoyl)methyl]carbamoyl}amino)butyl]carbamoyl}amino)acetamide] |
| – | – | 9.0 | N#Cc1cc(Cl)cc2c1C[C@H](N1CCNCC1)[C@H]2Oc1ccc(S(=O)(=O)NCCOCCOCCNC(=O)NCCCCNC(=O)NCCOCCOCCNS(=O)(=O)c2ccc(O[C@H]3c4cc(Cl)cc(C#N)c4C[C@@H]3N3CCNCC3)cc2)cc1 [G-CN, 3-(2-{2-[2-(4-{[(1S,2S)-6-chloro-4-cyano-2-(piperazin-1-yl)-2,3-dihydro-1H-inden-1-yl]oxy}benzenesulfonamido)ethoxy]ethoxy}ethyl)-1-(4-{[(2-{2-[2-(4-{[(1S,2S)-6-chloro-4-cyano-2-(piperazin-1-yl)-2,3-dihydro-1-yl]oxy}benzenesulfonamido)ethoxy]ethoxy}ethyl)carbamoyl]amino}butyl)urea] |
| 1.26 nM | 36% | – | CN(C)[C@@H]1CCCN([C@H]2Cc3c(C#N)cc(Cl)cc3[C@@H]2Oc2ccc(S(=O)(=O)NCCOCCOCCNC(=O)NCCCCNC(=O)NCCOCCOCCNS(=O)(=O)c3ccc(O[C@H]4c5cc(Cl)cc(C#N)c5C[C@@H]4N4CCC[C@@H](N(C)C)C4)cc3)cc2)C1 [E-CN, 3-(2-{2-[2-(4-{[(1S,2S)-6-chloro-4-cyano-2-[(3R)-3-(dimethylamino)piperidin-1-yl]-2,3-dihydro-1H-inden-1-yl]oxy}benzenesulfonamido)ethoxy]ethoxy}ethyl)-1-(4-{[(2-{2-[2-(4-{[(1S,2S)-6-chloro-4-cyano-2-[(3R)-3-(dimethylamino)piperidin-1-yl]-2,3-dihydro-1H-inden-1-yl]oxy}benzenesulfonamido)ethoxy]ethoxy}ethyl)carbamoyl]amino}butyl)urea] |
